Measurements as given in PubChem BioAssay AID651975 (The Scripps Research Institute Molecular Screening Center, 2013).
Activity calls are given as the source filed them. How the calls were made is not given here.

Tested on: StAR promoter luciferase reporter cells, luminescence inhibition
Assay: StAR promoter reporter inhibition counter-screen, late-stage follow-up, counter-screen for LRH-1 inverse agonist project, cell-based, luminescence, dose response (AID 651975)

Structure (SMILES)	IC50
O=C(OCC(=O)N1CCN(C(=O)COC(=O)c2ccc(O)cc2O)CC1)c1ccc(O)cc1O	> 35.9 µM (inactive)
O=C(Nc1ccc(Br)cn1)c1ccc([N+](=O)[O-])o1	> 35.9 µM (inactive)
COC(=O)c1ccc(NC(=O)CSc2nc3ncccc3[nH]2)cc1	> 35.9 µM (inactive)
COc1ccc(CCNC(=O)COC(=O)c2cc(Cl)nc(Cl)c2)cc1	> 35.9 µM (inactive)
COc1ccc(NS(=O)(=O)c2ccc(OCC(=O)N3CCN(C)CC3)cc2)cc1Cl	> 35.9 µM (inactive)
O=C(NCc1ccco1)c1nn(-c2ccccc2)c(=O)c2ccccc12	> 35.9 µM (inactive)
COc1ccc(CCNC(=O)COC(=O)c2cccn2C)cc1	> 35.9 µM (inactive)
CCCc1cc(=O)oc2cc(OCC(=O)NCCc3ccc(S(N)(=O)=O)cc3)ccc12	> 35.9 µM (inactive)
O=C(CSc1nnc(CNC(=O)c2c(F)cccc2F)o1)Nc1ccc2c(c1)OCCO2	> 35.9 µM (inactive)
N#CCSc1ccccc1NC(=O)CN1C(=O)C2CC=CCC2C1=O (stereo not given)	> 35.9 µM (inactive)
CCc1cc(=O)[nH]c(SCC(=O)Nc2ccc3c(c2)OCCO3)n1	> 35.9 µM (inactive)
O=C(COc1ccc2c3c(c(=O)oc2c1)CCC3)NCc1ccncc1	> 35.9 µM (inactive)
COc1ccc(NC(=O)CN2C(=O)NC3(CCCC3)C2=O)cc1	> 35.9 µM (inactive)
CCn1c(SCC(=O)Nc2ccc(Cl)cc2)nnc1C1CC1	> 35.9 µM (inactive)
COc1ccc(CC(NC(C)=O)C(=O)NC2CCN(c3nnnn3-c3ccccc3)CC2)cc1 (stereo not given)	> 35.9 µM (inactive)
O=C(COC(=O)CCN1C(=O)C2CC=CCC2C1=O)NCCc1ccc(F)cc1 (stereo not given)	> 35.9 µM (inactive)
CC(=O)Nc1ncc(Cc2cc(Cl)ccc2Cl)s1	> 35.9 µM (inactive)
Cc1cc(=O)oc2c(C)c(OCC(=O)NC3CC(C)(C)NC(C)(C)C3)ccc12	> 35.9 µM (inactive)
COc1ccc(NC(=O)CSc2nnc3ccc(-c4cccnc4)nn23)cc1OC	> 35.9 µM (inactive)
O=C(Nc1nc2c(Cl)cccc2s1)c1ccc([N+](=O)[O-])o1	> 35.9 µM (inactive)
Cc1ccc(NC(=O)COC(=O)C(NS(=O)(=O)c2ccc(Cl)cc2)C(C)O)cc1C (stereo not given)	> 35.9 µM (inactive)
COc1ccc(CCNC(=O)COC(=O)C23CC4CC(CC(C4)C2)C3)cc1	> 35.9 µM (inactive)
CCOc1ccc(NC(=O)COC(=O)c2ccc3c(c2)OCCO3)cc1	> 35.9 µM (inactive)
COc1ccc(CCNC(=O)CSc2nn3c(=O)c(C)nnc3s2)cc1OC	> 35.9 µM (inactive)

Structure (SMILES)	IC50
Cc1ccc(NC(=O)COC(=O)C(NS(=O)(=O)c2ccc(Cl)cc2)C(C)O)c(Br)c1 (stereo not given)	> 35.9 µM (inactive)
Cc1ccc(NC(=O)COC(=O)c2cc(=O)c3ccccc3o2)c(Br)c1	> 35.9 µM (inactive)
COc1ccccc1Oc1nnnn1-c1ccc(C(N)=O)cc1	> 35.9 µM (inactive)
Cc1sc(NC(=O)C(C)C)c(C(=O)Nc2ccccc2)c1C	> 35.9 µM (inactive)
CC1SC(C)C(=O)N(CC(=O)Nc2ccc3c(c2)OCO3)C1=O (stereo not given)	> 35.9 µM (inactive)
COC(=O)c1ccc(NC(=O)COc2cccc(-n3cnnn3)c2)cc1	> 35.9 µM (inactive)
Cc1ccn2c(=O)nc(SCC(=O)Nc3ccc4c(c3)OCCO4)nc2c1	> 35.9 µM (inactive)
COc1ccc(CCNC(=O)CSc2nc3[nH]c(=O)cc(O)c3s2)cc1	> 35.9 µM (inactive)
O=C(NCC1CCCO1)c1ccc(NC(=O)c2cccc([N+](=O)[O-])c2)cc1 (stereo not given)	> 35.9 µM (inactive)
Cc1cc(C)c2nc(NC(=O)c3ccc([N+](=O)[O-])o3)sc2c1	> 35.9 µM (inactive)
CCOc1ccc(OCCC(=O)OCC(=O)Nc2ccc3c(c2)OCCO3)cc1	> 35.9 µM (inactive)
CCc1c(C)nc(SCC(=O)Nc2ccc3c(c2)OCCO3)[nH]c1=O	> 35.9 µM (inactive)
Cc1ccc2cccc(OCC(=O)NCCC3=CCCCC3)c2n1	> 35.9 µM (inactive)
O=C(CSc1nnc(CNC(=O)c2ccccc2F)o1)Nc1ccc2c(c1)OCCO2	> 35.9 µM (inactive)
O=C(CSc1nc(=O)n2cc(Cl)ccc2n1)Nc1ccc2c(c1)OCCO2	> 35.9 µM (inactive)
Cc1ccc(NC(=O)CSc2nc3[nH]c(=O)cc(O)c3s2)c(Br)c1	> 35.9 µM (inactive)
CC(=O)Nc1ccc(N=c2cc([N+](=O)[O-])cc(Cl)n2O)cc1	> 35.9 µM (inactive)
COc1ccc(-n2c(N)c(C(=O)NCc3cccnc3)sc2=S)cc1	> 35.9 µM (inactive)
CC(=O)c1ccc(OC(C)C(=O)OCC(=O)NCCc2ccccc2)cc1 (stereo not given)	> 35.9 µM (inactive)
COc1ccc(NC(=O)COC(=O)c2c(-c3ccccc3)noc2C)cc1	33.9 µM (inactive)
CCCc1cc(=O)oc2cc(OCC(=O)NCc3ccccn3)ccc12	> 35.9 µM (inactive)
COC(=O)c1ccc(CNC(=O)COC(=O)c2cc(Cl)nc(Cl)c2)cc1	> 35.9 µM (inactive)
CCOc1ccc(NC(=O)COC(=O)COc2cccc3c2OC(C)(C)C3)cc1	> 35.9 µM (inactive)
CCOc1ccc(NC(=O)CN2CCN(CC(=O)Nc3ccc(OC)cc3)CC2)cc1	> 35.9 µM (inactive)

Structure (SMILES)	IC50
CCc1cc(=O)oc2c(C)c(OCC(=O)NCCN3CCOCC3)ccc12	> 35.9 µM (inactive)
CN1CCN(c2ccc(S(=O)(=O)N3CCCCC3)cc2NC(=O)COc2ccc([N+](=O)[O-])cc2)CC1	> 35.9 µM (inactive)
Cc1ccc(NC(=O)CSc2sc3c(O)cc(=O)[nH]c3c2C#N)c(F)c1	> 35.9 µM (inactive)
COc1ccc(NC(=O)CSc2ccc3c(c2)OCCO3)cc1	> 35.9 µM (inactive)
O=C(COC(=O)c1ccc(Br)cc1)Nc1ccccc1Br	> 35.9 µM (inactive)
O=c1[nH]c(Nc2ccc3c(c2)OCCO3)nnc1Cc1ccccc1	> 35.9 µM (inactive)
CCCc1nnc(SCC(=O)Nc2ccc(C(=O)OCC)cc2)o1	> 35.9 µM (inactive)
Cc1cc(Br)ccc1NC(=O)CN1C(=O)CCC1=O	> 35.9 µM (inactive)
NC(=O)C1CCN(C(=O)COc2ccc3c4c(c(=O)oc3c2)CCCC4)CC1	> 35.9 µM (inactive)
O=C(CN1C(=O)CCC1=O)Nc1ccc(Br)cc1	> 35.9 µM (inactive)
Cc1cc(Br)ccc1NC(=O)CN1C(=O)C2CC=CCC2C1=O (stereo not given)	27.8 µM (inactive)
O=C(COc1ccc2c3c(c(=O)oc2c1)CCCC3)NCc1ccccn1	> 35.9 µM (inactive)
CCCN(CC(=O)Nc1ccc(C(C)=O)cc1)CC(=O)Nc1ccccc1C	> 35.9 µM (inactive)
COc1ccc(NC(=O)CSc2nc(N)c(-c3ccccc3)c(=O)[nH]2)cc1	> 35.9 µM (inactive)
Cc1cccc(NC(=O)COC(=O)CN2C(=O)c3ccccc3C2=O)c1C	> 35.9 µM (inactive)
CCOc1ccc(NC(=O)CSc2nccn(-c3ccc4c(c3)OCCO4)c2=O)cc1	> 35.9 µM (inactive)
COc1ccc(CCNC(=O)COC(=O)Cc2ccccc2[N+](=O)[O-])cc1	> 35.9 µM (inactive)
Cc1cc(Br)ccc1NC(=O)CSc1nnc(CN2CCOCC2)n1C	> 35.9 µM (inactive)
CC(=O)Nc1ccc(NC(=O)CSc2ccc(-c3ccco3)nn2)cc1	> 35.9 µM (inactive)
Cc1cccc(NC(=O)COC(=O)Cc2cccs2)c1C	> 35.9 µM (inactive)
COCCn1c(C)cc(/C=C(\C#N)C(=O)OCC(=O)Nc2ccc(S(N)(=O)=O)cc2)c1C	> 35.9 µM (inactive)
COC(=O)c1ccc(NC(=O)CN2CCN(c3ccc(Cl)cc3)CC2)cc1	> 35.9 µM (inactive)
COCC(=O)NC1CCN(CC(=O)Nc2ccc(OC)cc2[N+](=O)[O-])CC1	> 35.9 µM (inactive)
O=C(Nc1ccccc1)c1oc2ccccc2c1NC(=O)C1CC1	> 35.9 µM (inactive)

Structure (SMILES)	IC50
Cc1cc(OCC(=O)Nc2nccs2)c2c(C)cc(=O)oc2c1	> 35.9 µM (inactive)
Cc1cc(C)c2sc(NC(=O)c3ccc([N+](=O)[O-])o3)nc2c1	> 35.9 µM (inactive)
O=C(Nc1ccc(S(=O)(=O)N2CCOCC2)cc1)c1cccc([N+](=O)[O-])c1	> 35.9 µM (inactive)
CCCc1cc(=O)oc2c(C)c(OCC(=O)NC3CC(C)(C)NC(C)(C)C3)ccc12	> 35.9 µM (inactive)
COc1ccc(CCNC(=O)CSc2ccc(NC(C)=O)cc2)cc1OC	> 35.9 µM (inactive)
CCCc1cc(=O)oc2cc(C)cc(OCC(=O)NC3CC3)c12	> 35.9 µM (inactive)
CCCc1cc(=O)oc2c(C)c(OCC(=O)NCCN3CCOCC3)ccc12	> 35.9 µM (inactive)
CC(=O)c1ccc(NC(=O)C(C)O/N=C(\N)c2ccccc2)cc1 (stereo not given)	> 35.9 µM (inactive)
CCCc1cc(=O)oc2c(C)c(OCC(=O)NCCCn3ccnc3)ccc12	> 35.9 µM (inactive)
Cc1nn(CC(=O)Nc2ccc3c(c2)OCCO3)c(C)c1[N+](=O)[O-]	> 35.9 µM (inactive)
CCOc1ccc(NC(=O)CSc2nnc(C(C)C)n2CC)cc1	> 35.9 µM (inactive)
CCOc1ccc(NC(=O)CSc2nncc(=O)n2N)cc1	> 35.9 µM (inactive)
COc1ccc(NC(=O)CS(=O)(=O)c2ccc(C)cc2)c(OC)c1	> 35.9 µM (inactive)
COC(=O)c1ccc(NC(=O)CSc2ccc(-c3ccccn3)nn2)cc1	> 35.9 µM (inactive)
O=C(COC(=O)c1ccc[n+]([O-])c1)Nc1ccc([N+](=O)[O-])cc1Cl	> 35.9 µM (inactive)
Cc1ccc(-c2csc(NC(=O)c3ccc([N+](=O)[O-])o3)n2)cc1	> 35.9 µM (inactive)
CCOc1ccc(NC(=O)CSc2nc3[nH]ncc3c(=O)[nH]2)cc1	> 35.9 µM (inactive)
COc1ccc(C2(C)NC(=O)N(CC(=O)NCCC3=CCCCC3)C2=O)cc1OC (stereo not given)	> 35.9 µM (inactive)
COc1ccc(NC(=O)CSc2sc3c(O)cc(=O)[nH]c3c2C#N)c(OC)c1	> 35.9 µM (inactive)
COC(=O)c1ccc(NC(=O)CSc2nncn2-c2cccnc2)cc1	> 35.9 µM (inactive)
CCOc1ccc(OCCN2C(=O)NC(Cc3c[nH]c4ccccc34)C2=O)cc1 (stereo not given)	> 35.9 µM (inactive)
COc1ccc(NC(=O)COC(=O)c2cc(S(=O)(=O)N3CCCC3)ccc2O)cc1	> 35.9 µM (inactive)
COC(=O)c1ccc(NC(=O)CSc2nn3c(=O)c(C)nnc3s2)cc1	> 35.9 µM (inactive)
